Entries after “also recorded” stand apart in the source; their conditions may differ.
Key:
[1] = system: HeLa-CAT cells; assay: Cell proliferation and cell cycle distribution (FACS, propidium iodide); format: cell-based, human
Description: This cell cycle arrest was followed by flow cytometry of propidium iodide-stained cells. To determine whether mutHSF-induced expression (enhanced expression) of hsp protects the cells from hyperthermia-induced cell cycle arrest, cells were either co-transfected with a CMV promoter-linked mutHSF gene construct and a GFP construct, or singly transfected with the GFP construct. After heat treatment and postincubation as described herein, cells were sorted based on GFP fluorescence. […]
For fluorescence-activated cell sorting, cells from cultures transfected or co-transfected with EGFP-expressing construct were removed from tissue culture dishes by treatment with 0.04% EDTA in phosphate-buffered saline (PBS) and were resuspended in PBS. […] Excitation wavelength was 488 nm, and detection wave lengths were 650 nm (long pass) for propidium iodide and 520 nm (narrow band) for detection of EGFP fluorescence. […]
Protein synthesis dropped to about 10% of the normal rate during heat shock but, after a 1 hour recovery period, returned to pre-shock level in HSF1(+)-expressing but not control cells. […] Fluorescence-activated cell sorting and analyses of DNA content were performed on a FACStar Plus machine (Becton-Dickinson, San Jose, Calif.) configured as described elsewhere (Parks, D. R. et al., In: The Handbook of Experimental Immunology, 4th Edition. Vol. 29. pp. 1–29, 1986). […]

[2] = system: HeLa-CAT cells; assay: Cell survival after heat shock, count of β-galactosidase-positive cells; format: cell-based, human; conditions: heat shock 48° C./10 minutes; p<0.05
Description: To also assess the effect of expression of HSF1(−) on stress-induced cell killing, cultures were transfected with a beta-galactosidase gene or co-transfected with the beta-galactosidase gene and the HSF1(−) construct.
Transfected cultures were subjected to a severe heat shock (48° C./10 minutes; about 75% cell survival) or left untreated, and β-galactosidase-positive cells were counted the following day. Untreated, singly and doubly transfected cultures contained similar number of β-galactosidase-expressing cells. In the heat-shocked cultures, the presence of HSF1(−) increased cell killing by about 60% (p<0.05). Thus, the increase in Hsp levels occurring as a consequence of a stressful event has a significant, immediate protective effect.

Substance	heat-induced G2/M cell cycle arrest ([1]; 43° C. heat shock, GFP-positive cells, listed as mutHSF)	cell proliferation ([1]; FACS-isolated, days two to four)	increase in cell killing [2]
human HSF1d202–316 [HSF1(+)]	much lower proportion of cells in G2/M phase; also recorded: only a small fraction	severely inhibited cell proliferation	–
human HSF1d453–523 [HSF1(−)]	–	–	about 60%
